{"source": "patent US7381714B2", "about": "“A1 adenosine receptor agonists” (CV Therapeutics, Inc., priority 2005, dated 2008)", "key": {"[1]": {"molecular_target": "T1, A1 adenosine receptor (Mesocricetus auratus, UniProt A0A1U8BVR4)", "T1 sequence (A0A1U8BVR4 1-326)": "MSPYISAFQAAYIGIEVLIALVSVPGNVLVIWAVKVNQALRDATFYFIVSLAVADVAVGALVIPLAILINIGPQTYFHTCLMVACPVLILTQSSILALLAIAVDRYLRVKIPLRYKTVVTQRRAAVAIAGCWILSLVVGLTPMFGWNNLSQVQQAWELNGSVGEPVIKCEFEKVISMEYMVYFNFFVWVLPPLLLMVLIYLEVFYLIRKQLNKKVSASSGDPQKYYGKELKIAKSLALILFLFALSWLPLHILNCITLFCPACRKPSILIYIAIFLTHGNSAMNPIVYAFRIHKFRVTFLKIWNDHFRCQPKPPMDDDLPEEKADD", "assay": "Competitive radioligand binding assay, DDT cell membranes", "design": "species or system hamster", "conditions": "membranes of DDT cells; tritiated radioligand 1.5 nM; 23° C. 90 minutes; read-out: A1 BINDING AFFINITY Ki", "protocol": "DDT cells (hamster vas deferens smooth muscle cell line) were grown as monolayers in petri dishes using Dulbecco's Modified Eagle's Medium (DMEM) containing 2.5 μg mL^−1 amphotericin B, 100 U mL^−1 penicillin G, 0.1 mg mL^−1 streptomycin sulfate and 5% fetal bovine serum in a humidified atmosphere of 95% air and 5% CO2. Cells were subcultured twice weekly by dispersion in Hank's Balanced Salt Solution (HBSS) without the divalent cations and containing 1 mM EDTA. The cells were then seeded in growth medium at a density of 1.2×10^5 cells per plate and experiments were performed 4 days later at approximately one day preconfluence.\nAttached cells were washed twice with HBSS (2×10 mL), scraped free of the plate with the aid of a rubber policeman in 5 mL of 50 mM Tris-HCl buffer pH 7.4 at 4° C. and the suspension was homogenized for 10 s. The suspension was then centrifuged at 27,000×g for 10 min. The pellet was resuspended in homogenization buffer by vortexing and centrifuged again as described above. The final pellet was resuspended in 1 vol of 50 mM Tris-HCl buffer pH 7.4 containing 5 mM MgCl2 for A1 adenosine receptor assays. For the [^35S]GTPγS binding assay the final pellet was resuspended in 50 mM Tris-HCl pH 7.4 containing 5 mM MgCl2, 100 mM NaCl and 1 mM dithiothreitol. This membrane suspension was then placed in liquid nitrogen for 10 min and stored at −80° C. Aliquots of the membrane suspension were later thawed and used for assays. The protein content was determined with a BradfordTm Assay Kit using bovine serum albumin as standard.\nCompounds of Formula I were assayed by use of competitive radioligand binding methods to determine their affinity for the A1 adenosine receptor sites on the membranes of DDT cells. […] The amount of radioactivity retained on the filters was determined by liquid scintillation spectrometry. […]"}, "[2]": {"conditions": "cited from earlier work"}}}
{"smiles": "CNC(=O)c1cn(-c2nc(NC3CCCC3)c3ncn([C@@H]4O[C@H](CO)[C@@H](O)[C@H]4O)c3n2)nn1", "note": "[III., (1-{9-[(4S,3R,5R)-3,4-dihydroxy-5-(hydroxymethyl)oxolan-2-yl]-6-(cyclopentylamino)purin-2-yl}(1,2,3-triazol-4-yl))-N-methylcarboxamide]", "values": [{"measurement": "Ki", "setting": "[1]", "result": 2, "unit": "nM"}]}
{"smiles": "Nc1ncnc2c1ncn2[C@@H]1O[C@H](CO)[C@@H](O)[C@H]1O", "note": "[adenosine]", "values": [{"measurement": "half-life", "setting": "[2]", "result": "less than 10 sec"}]}
{"smiles": "CCOC(=O)c1cn(-c2nc(NC3CCCC3)c3ncn([C@@H]4O[C@H](CO)[C@@H](O)[C@H]4O)c3n2)nn1", "note": "[II., ethyl 1-{9-[(4S,3R,5R)-3,4-dihydroxy-5-(hydroxymethyl)oxolan-2-yl]-6-(cyclopentylamino)purin-2-yl}-1,2,3-triazole-4-carboxylate]", "values": [{"measurement": "Ki", "setting": "[1]", "result": 3, "unit": "nM"}]}
{"smiles": "NC(=O)c1cn(-c2nc(NC3CCCC3)c3ncn([C@@H]4O[C@H](CO)[C@@H](O)[C@H]4O)c3n2)nn1", "note": "[IV., 1-{9-[(4S,3R,5R)-3,4-dihydroxy-5-(hydroxymethyl)oxolan-2-yl]-6-(cyclopentylamino)purin-2-yl}-1,2,3-triazole-4-carboxamide]", "values": [{"measurement": "Ki", "setting": "[1]", "result": 16, "unit": "nM"}]}
